# Calls of active or inactive are those of the source. No cut-off for these calls is given here.
# Columns and labels:
# [1] = target: T1, Poly [ADP-ribose] polymerase 1 (Homo sapiens, UniProt P09874); conditions: dose 10.0 nM, time 10.0 min
# HCT-116 [2] = assay: Induction of apoptosis in human HCT-116 cells assessed as necrotic cells at 0.25 uM incubated for 48 hrs by Annexin V-PE/7-AAD staining based flow cytometry analysis (reference value: 0 %); type: functional
# HCT-116 [3] = assay: Induction of apoptosis in human HCT-116 cells assessed as viable cells at 1 uM incubated for 48 hrs by Annexin V-PE/7-AAD staining based flow cytometry analysis (reference value: 92.8 %); type: functional; conditions: read-out: Activity
# HCT-116 [4] = assay: Antiproliferative activity against human HCT-116 cells assessed as inhibition of cell viability incubated for 72 hrs by CCK8 assay; type: functional, cell-based; conditions: HCT-116, 72 h
# HCT-116 [5] = assay: Antiproliferative activity against human HCT-116 cells transfected with PARP1 siRNA assessed as inhibition of cell viability at 0.5 uM incubated for 72 hrs by CCK8 assay; type: functional, cell-based
# HCT-116 [6] = assay: Induction of DNA damage in human HCT-116 cells assessed as increase in gammaH2AX phosphorylation level incubated for 48 hrs by DAPI staining based immunofluorescence analysis; type: functional, cell-based; conditions: dose 0.25-1 µM
# HCT-116 [7] = assay: Induction of apoptosis in human HCT-116 cells assessed as necrotic cells at 1 uM incubated for 48 hrs by Annexin V-PE/7-AAD staining based flow cytometry analysis (reference value: 0 %); type: functional
# HCT-116 [8] = assay: Induction of apoptosis in human HCT-116 cells assessed as early apoptotic cells at 1 uM incubated for 48 hrs by Annexin V-PE/7-AAD staining based flow cytometry analysis (reference value: 6.78 %); type: functional
# HCT-116 [9] = assay: […] in human HCT-116 cells assessed as decrease in accumulation of cells at G2/M phase at 0.25 to 1 uM incubated for 48 hrs by propidium iodide staining based flow cytometry analysis (Rvb =34.99%); type: functional; set-up: scale not given: the % may be the effect or the level left; conditions: dose 0.25-1 µM
# [10] = Toxicity in BALB/c nude mouse xenografted with human HCT-116 cells assessed as tissue morphology at 20 mg/kg, ip administered for 14 days by hematoxylin and eosin staining based assay; type: organism-based; conditions: in vivo, 336 h, time 14 day
# HCT-116 [11] = assay: Induction of DNA damage in human HCT-116 cells assessed as increase in gammaH2AX phosphorylation level incubated for 48 hrs by Western blotting analysis; type: functional, cell-based; conditions: dose 0.25-1 µM
# HCT-116 [12] = assay: Induction of apoptosis in human HCT-116 cells assessed as late apoptotic cells at 0.5 uM incubated for 48 hrs by Annexin V-PE/7-AAD staining based flow cytometry analysis (reference value: 0.39 %); type: functional
# [13] = Toxicity in BALB/c nude mouse xenografted with human HCT-116 cells assessed as change in body weight at 20 mg/kg, ip administered for 14 days; type: organism-based; conditions: in vivo, 336 h, time 14 day
# A549 = assay: Antiproliferative activity against human A549 cells assessed as inhibition of cell viability incubated for 72 hrs by CCK8 assay; type: functional, cell-based; conditions: A549, 72 h
# HCT-116 [14] = assay: Antitumor activity against human HCT-116 cells xenografted in BALB/c nude mouse assessed as tumor growth inhibition at 10 mg/kg, ip administered for 14 days relative to control; type: functional; conditions: HCT-116, 336 h, time 14 day, read-out: TGI
# HCT-116 [15] = assay: Induction of apoptosis in human HCT-116 cells assessed as increase in Cleaved-Caspase-3 protein expression level by Western blotting analysis; type: functional, cell-based; conditions: dose 0.25-1 µM
# [16] = AUC(0 to infinity) in BALB/c mouse at 20 mg/kg, po and measured after 24 hrs by LC-MS/MS analysis; type: ADME, organism-based; conditions: in vivo
# HCT-116 [17] = assay: Antiproliferative activity against human HCT-116 cells assessed as inhibition of colony formation incubated for 48 hrs medium replaced with every 14 days by crystal violet staining based optical microscope; type: functional, cell-based; conditions: time 14.0 day
# HCT-116 [18] = assay: Antitumor activity against human HCT-116 cells xenografted in BALB/c nude mouse assessed as suppression of tumor growth at 10 mg/kg, ip administered for 14 days relative to control; type: functional, organism-based; conditions: time 14.0 day
# NCM460 = assay: Antiproliferative activity against human NCM460 cells assessed as inhibition of cell viability incubated for 72 hrs by CCK8 assay; type: functional, cell-based; conditions: NCM460, 72 h
# HCT-116 [19] = assay: Induction of apoptosis in human HCT-116 cells assessed as viable cells at 0.5 uM incubated for 48 hrs by Annexin V-PE/7-AAD staining based flow cytometry analysis (reference value: 92.8 %); type: functional; conditions: read-out: Activity
# HCT-116 [20] = assay: Induction of apoptosis in human HCT-116 cells assessed as increase in accumulation of cells at S phase at 0.25 to 1 uM incubated for 48 hrs by propidium iodide staining based flow cytometry analysis (reference value: 24.67%); type: functional; conditions: dose 0.25-1 µM
# MCF7 = assay: Antiproliferative activity against human MCF7 cells assessed as inhibition of cell viability incubated for 72 hrs by CCK8 assay; type: functional, cell-based; conditions: MCF7, 72 h
# HCT-116 [21] = assay: Induction of apoptosis in human HCT-116 cells assessed as decrease in Caspase-3 protein expression level by Western blotting analysis; type: functional, cell-based; conditions: dose 0.25-1 µM
# HCT-116 [22] = assay: Induction of apoptosis in human HCT-116 cells assessed as decrease in Bcl-2 protein expression level by Western blotting analysis; type: functional, cell-based; conditions: dose 0.25-1 µM
# HCT-116 [23] = assay: Induction of apoptosis in human HCT-116 cells assessed as necrotic cells at 0.5 uM incubated for 48 hrs by Annexin V-PE/7-AAD staining based flow cytometry analysis (reference value: 0 %); type: functional
# HCT-116 [24] = assay: Induction of apoptosis in human HCT-116 cells assessed as early apoptotic cells at 0.25 uM incubated for 48 hrs by Annexin V-PE/7-AAD staining based flow cytometry analysis (reference value: 6.78 %); type: functional
# HCT-116 [25] = assay: Induction of apoptosis in human HCT-116 cells assessed as increase in Cleaved-PARP protein expression level by Western blotting analysis; type: functional, cell-based; conditions: dose 0.25-1 µM
# HCT-116 [26] = assay: Induction of apoptosis in human HCT-116 cells assessed as viable cells at 0.25 uM incubated for 48 hrs by Annexin V-PE/7-AAD staining based flow cytometry analysis (reference value: 92.8 %); type: functional; conditions: read-out: Activity
# HCT-116 [27] = assay: Induction of apoptosis in human HCT-116 cells assessed as late apoptotic cells at 0.25 uM incubated for 48 hrs by Annexin V-PE/7-AAD staining based flow cytometry analysis (reference value: 0.39 %); type: functional
# [28] = Half life in BALB/c mouse at 20 mg/kg, po and measured after 24 hrs by LC-MS/MS analysis; type: ADME, organism-based; conditions: in vivo
# HCT-116 [29] = assay: Antitumor activity against human HCT-116 cells xenografted in BALB/c nude mouse assessed as tumor growth inhibition at 20 mg/kg, ip administered for 14 days relative to control; type: functional; conditions: Mus musculus, HCT-116, 336 h, time 14 day, read-out: TGI
# HCT-116 [30] = assay: Induction of apoptosis in human HCT-116 cells assessed as increase in Bax protein expression level by Western blotting analysis; type: functional, cell-based; conditions: dose 0.25-1 µM
# HCT-116 [31] = assay: Antitumor activity against human HCT-116 cells xenografted in BALB/c nude mouse assessed as reduction in tumor weight at 10 mg/kg, ip administered for 14 days relative to control; type: functional, organism-based; conditions: time 14.0 day
# [32] = AUC(0 to t) in BALB/c mouse at 20 mg/kg, po and measured after 24 hrs by LC-MS/MS analysis; type: ADME, organism-based; conditions: in vivo
# [33] = target: T1, Poly [ADP-ribose] polymerase 1; assay: Inhibition of PARP1 in human HCT-116 cells assessed as inhibition of PARP-induced PARylation incubated for 48 hrs by Western blotting analysis; type: cell-based; conditions: dose 0.25-1 µM
# [34] = Clearance in BALB/c mouse at 20 mg/kg, po and measured after 24 hrs by LC-MS/MS analysis; type: ADME, organism-based; conditions: in vivo
# MV4-11 = assay: Antiproliferative activity against human MV4-11 cells assessed as inhibition of cell viability incubated for 72 hrs by CCK8 assay; type: functional, cell-based; conditions: MV4-11, 72 h
# [35] = Cmax in BALB/c mouse at 20 mg/kg, po and measured after 24 hrs by LC-MS/MS analysis; type: ADME, organism-based; conditions: in vivo
# [36] = target: T1, Poly [ADP-ribose] polymerase 1; assay: Inhibition of PARP1 (unknown origin) incubated for 10 mins by chemiluminescence assay
# HCT-116 [37] = assay: Antiproliferative activity against human HCT-116 cells assessed as decrease in number of EdU-positive cells at 0.25 to 1 uM incubated for 48 hrs in presence of EdU labeling agent by Hoechst staining based confocal microscopy; type: functional, cell-based; conditions: dose 0.25-1 µM
# HCT-116 [38] = assay: Induction of apoptosis in human HCT-116 cells assessed as early apoptotic cells at 0.5 uM incubated for 48 hrs by Annexin V-PE/7-AAD staining based flow cytometry analysis (reference value: 6.78 %); type: functional
# HCT-116 [39] = assay: Induction of apoptosis in human HCT-116 cells assessed as late apoptotic cells at 1 uM incubated for 48 hrs by Annexin V-PE/7-AAD staining based flow cytometry analysis (reference value: 0.39 %); type: functional
# T1 sequence (P09874 whole entry): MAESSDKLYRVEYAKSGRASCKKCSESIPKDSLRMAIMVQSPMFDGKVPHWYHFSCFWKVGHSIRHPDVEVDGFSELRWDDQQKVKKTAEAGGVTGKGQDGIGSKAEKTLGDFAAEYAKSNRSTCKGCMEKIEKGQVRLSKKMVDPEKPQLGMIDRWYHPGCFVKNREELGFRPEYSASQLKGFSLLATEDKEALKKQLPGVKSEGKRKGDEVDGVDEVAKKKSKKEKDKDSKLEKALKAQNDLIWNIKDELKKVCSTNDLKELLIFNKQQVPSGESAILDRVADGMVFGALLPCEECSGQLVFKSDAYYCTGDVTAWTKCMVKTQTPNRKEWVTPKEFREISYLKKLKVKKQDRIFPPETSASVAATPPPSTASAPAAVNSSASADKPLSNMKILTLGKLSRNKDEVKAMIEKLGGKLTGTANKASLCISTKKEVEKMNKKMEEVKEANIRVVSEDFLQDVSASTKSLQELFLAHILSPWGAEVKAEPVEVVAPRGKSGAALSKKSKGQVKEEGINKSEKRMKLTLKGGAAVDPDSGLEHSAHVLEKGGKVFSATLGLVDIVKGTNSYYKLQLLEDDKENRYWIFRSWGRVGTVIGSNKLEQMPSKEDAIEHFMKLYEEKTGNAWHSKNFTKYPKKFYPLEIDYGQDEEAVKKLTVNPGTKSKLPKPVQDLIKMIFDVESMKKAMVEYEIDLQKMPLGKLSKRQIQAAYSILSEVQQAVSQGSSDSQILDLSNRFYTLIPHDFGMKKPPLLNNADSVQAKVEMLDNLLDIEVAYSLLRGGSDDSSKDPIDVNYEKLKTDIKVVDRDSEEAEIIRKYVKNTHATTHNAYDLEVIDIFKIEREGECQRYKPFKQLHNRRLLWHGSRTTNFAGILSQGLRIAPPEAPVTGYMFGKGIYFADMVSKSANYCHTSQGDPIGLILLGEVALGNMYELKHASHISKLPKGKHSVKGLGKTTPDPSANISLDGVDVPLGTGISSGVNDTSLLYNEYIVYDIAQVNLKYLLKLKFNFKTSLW
structure (smiles),measurement,setting,value
O=C1Nc2ccccc2/C1=C1/Nc2ccccc2/C1=N\OCCCC(=O)N1CCN(C(=O)c2ccc(Cc3n[nH]c(=O)c4ccccc34)cc2F)CC1,inhibition,[1],64.8%
same,Activity,HCT-116 [2],0.12%
same,viability at 1 µM,HCT-116 [3],69.4%
same,IC50,HCT-116 [4],310 nM
same,Activity,HCT-116 [5],inactive
same,Activity,HCT-116 [6],Dose-Dependent Effect
same,Activity,HCT-116 [7],0.28%
same,Activity,HCT-116 [8],22.7%
same,Activity,HCT-116 [9],10.5%
same,Activity,[10],Non-Toxic
same,Activity,HCT-116 [11],Dose-Dependent Effect
same,Activity,HCT-116 [12],1.05%
same,Activity,[13],Non-Toxic
same,IC50,A549,3260 nM
same,inhibition in vivo at 10 mg/kg,HCT-116 [14],75.9%
same,Activity,HCT-116 [15],Dose-Dependent Effect
same,AUC,[16],6450 ng·h/mL
same,Activity,HCT-116 [17],Dose-Dependent Effect
same,Activity,HCT-116 [18],Active
same,IC50,NCM460,> 60000 nM
same,viability at 0.5 µM,HCT-116 [19],83.7%
same,Activity,HCT-116 [20],41.03%
same,IC50,MCF7,1600 nM
same,Activity,HCT-116 [21],Dose-Dependent Effect
same,Activity,HCT-116 [22],Dose-Dependent Effect
same,Activity,HCT-116 [23],0.11%
same,Activity,HCT-116 [24],8.64%
same,Activity,HCT-116 [25],Dose-Dependent Effect
same,viability at 0.25 µM,HCT-116 [26],89.3%
same,Activity,HCT-116 [27],1.76%
same,half-life,[28],5.82 h
same,inhibition in vivo at 20 mg/kg,HCT-116 [29],86.6%
same,Activity,HCT-116 [30],Dose-Dependent Effect
same,Activity,HCT-116 [31],Active
same,AUCt,[32],5900 ng·h/mL
same,inhibition,[33],Dose-Dependent Effect
same,CL,[34],51.65 mL/min/kg
same,IC50,MV4-11,520 nM
same,Cmax,[35],6040 ng/mL
same,IC50,[36],1.89 nM
same,Activity,HCT-116 [37],Active
same,Activity,HCT-116 [38],14.6%
same,Activity,HCT-116 [39],7.01%
